Source: patent US20080287430A1, “Furan Compounds Useful As Ep1 Receptor Antagonists” (priority 2005, published 2008)
Counter-ions that a name gives are not always drawn.

Tests used:
gastric lesions in rats = settings: lesions induced by taurocholate acid, aspirin or indomethacin, J Pharmacol Exp Ther 1992, 263(1), 374-380; cited from earlier work
human EP1 receptor [1] = molecular target: T1, human EP1 receptor (Homo sapiens, UniProt P34995); experiment: human EP1 calcium mobilisation assay; format: cell-based; settings: human EP1, PGE2-induced calcium mobilisation in CHO-K1 cells; free bases or sodium salts; averages of a number of experiments; read-out: functional pKi value (converted)
T1 construct: expressed in transfected cells; host or cells: CHO-K1
T1 sequence (P34995 1-402): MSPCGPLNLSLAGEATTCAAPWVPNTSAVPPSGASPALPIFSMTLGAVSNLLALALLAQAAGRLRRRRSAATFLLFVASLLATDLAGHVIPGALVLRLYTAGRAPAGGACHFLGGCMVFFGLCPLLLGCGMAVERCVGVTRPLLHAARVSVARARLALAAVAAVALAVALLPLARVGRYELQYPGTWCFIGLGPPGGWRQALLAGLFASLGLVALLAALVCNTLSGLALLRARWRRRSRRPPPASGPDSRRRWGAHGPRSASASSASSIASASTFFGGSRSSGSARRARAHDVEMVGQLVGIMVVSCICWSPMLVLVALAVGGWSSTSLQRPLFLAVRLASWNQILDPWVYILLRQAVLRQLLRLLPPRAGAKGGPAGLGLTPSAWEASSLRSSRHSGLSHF
Procedure, shortened: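 CHO-K1 cells stably expressing human EP1, loaded with Fluo-4 after 24 h at 37° C; compounds added before PGE2 challenge. Inhibition of PGE2-induced [Ca2+]i rise read by FLIPR fluorescence; pIC50 from curve fitting of half-maximal inhibition.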

human EP1 receptor [2] = molecular target: T1, human EP1 receptor; experiment: Binding assay for the human prostanoid EP1 receptor (competition with [3H]-PGE2); settings: binding to human EP1 receptor, [3H]-PGE2 competition, CHO-K1 cell membranes; averages of a number of experiments; read-out: pIC50 value (converted)
Procedure: Competition assay using [^3H]-PGE2.
Compound potencies are determined using a radioligand binding assay. In this assay compound potencies are determined from their ability to compete with tritiated prostaglandin E2 ([^3H]-PGE2) for binding to the human EP1 receptor.
This assay utilises Chinese hamster ovary-K1 (CHO-K1) cells into which a stable vector containing the EP1 cDNA has previously been transfected. Cells are cultured in suitable flasks containing culture medium such as DMEM:F-12 supplemented with 10% v/v foetal calf serum, 2 mM L-glutamine, 0.25 mg/ml geneticin, 10 μg/ml puromycin and 10 μM indomethacin.
Cells are detached from the culture flasks by incubation in calcium and magnesium free phosphate buffered saline containing 1 mM disodium ethylenediaminetetraacetic acid (Na2EDTA) and 10 μM indomethacin for 5 min. The cells are isolated by centrifugation at 250×g for 5 mins and suspended in an ice cold buffer such as 50 mM Tris, 1 mM Na2EDTA, 140 mM NaCl, 10 μM indomethacin (pH 7.4). The cells are homogenised using a Polytron tissue disrupter (2×10 s burst at full setting), centrifuged at 48,000×g for 20 mins and the pellet containing the membrane fraction is washed (optional) three times by suspension and centrifugation at 48,000×g for 20 mins. The final membrane pellet is suspended in an assay buffer such as 10 mM 2-[N-morpholino]ethanesulphonic acid, 1 mM Na2EDTA, 10 mM MgCl2 (pH 6). Aliquots are frozen at −80° C. until required.
For the binding assay the cell membranes, competing compounds and [^3H]-PGE2 (3 nM final assay concentration) are incubated in a final volume of 100 μl for 30 min at 30° C. All reagents are prepared in assay buffer. Reactions are terminated by rapid vacuum filtration over GF/B filters using a Brandell cell harvester. The filters are washed with ice cold assay buffer, dried and the radioactivity retained on the filters is measured by liquid scintillation counting in Packard TopCount scintillation counter.
The data are analysed using non linear curve fitting techniques to determine the concentration of compound producing 50% inhibition of specific binding (IC50).

[3] = tested on: rodent model of post-operative pain; settings: Anesthesia and Analgesia 2001, 92, 233-238; cited from earlier work
[4] = tested on: rat model of chronic constriction injury; settings: Anesthesia and Analgesia 2001, 93, 1012-7; cited from earlier work

Row | Ki (human EP1 receptor [1]) [nM] | IC50 (human EP1 receptor [2]) [nM] | Compound | gastric lesions (gastric lesions in rats) | mechanical hyperalgesia [3] | hyperalgesia and allodynia [4]
1 | < 1000 | ≤ 10 | CC(C)COc1ccc(Cl)cc1Cc1ccc(-c2nc3ccc(CN(C)C(C)C)cc3[nH]2)o1 [Example 151, N-({2-[5-({5-Chloro-2-[(2-methylpropyl)oxy]-phenyl}methyl)-2-furanyl]-1H-benzimidazol-5-yl}methyl)-N-methyl-2-propanaminedihydrochloride] |  |  | 
2 | < 1000 | ≤ 10 | CC(C)COc1ccc(Cl)cc1Cc1ccc(-c2nc3ccc(CNCCO)cc3[nH]2)o1 [Example 156, 2-[({2-[5-({5-Chloro-2-[(2-methylpropyl)oxy]-phenyl}methyl)-2-furanyl]-1H-benzimidazol-5-yl}methyl)amino]-ethanol] |  |  | 
3 | < 1000 | ≤ 10 | CC(C)COc1ccc(Cl)cc1Cc1ccc(-c2nc3ccc(CCN4CCN(C)CC4)cc3[nH]2)o1 [Example 162, 2-[5-({5-Chloro-2-[(2-methylpropyl)oxy]-phenyl}methyl)-2-furanyl]-5-[2-(4-methyl-1-piperazinyl)ethyl]-1H-benzimidazoletrihydrochloride] |  |  | 
4 | < 1000 | ≤ 10 | CNCc1ccc2[nH]c(-c3ccc(Cc4cc(Cl)ccc4OCC(C)C)o3)nc2c1 [Example 166, ({2-[5-({5-Chloro-2-[(2-methylpropyl)oxy]phenyl}methyl)-2-furanyl]-1H-benzimidazol-5-yl}methyl)methylamine dihydrochloride] |  |  | 

More lines, now with the values behind:

Row | Compound | Ki (human EP1 receptor [1]) [nM] | IC50 (human EP1 receptor [2]) [nM] | gastric lesions (gastric lesions in rats) | mechanical hyperalgesia [3] | hyperalgesia and allodynia [4]
5 | O=C(O)Cc1ccc(CCNS(=O)(=O)c2ccc(Cl)cc2)cc1 [BM 13505] |  |  | inhibit gastric lesions |  | 
6 | CC(C)COc1ccc(Cl)cc1Cc1ccc(-c2nc3ccc(CN4CCCC4)cc3[nH]2)o1 [Example 143, 2-[5-({5-Chloro-2-[(2-methylpropyl)oxy]-phenyl}methyl)-2-furanyl]-5-(1-pyrrolidinylmethyl)-1H-benzimidazoledihydrochloride] | < 1000 | ≤ 10 |  |  | 
7 | CC(C)COc1ccc(Cl)cc1Cc1ccc(-c2nc3ccc(CN4CCN(C)CC4)cc3[nH]2)o1 [Example 145, 2-[5-({5-Chloro-2-[(2-methylpropyl)oxy]-phenyl}methyl)-2-furanyl]-5-[(4-methyl-1-piperazinyl)methyl]-1H-benzimidazoletrihydrochloride] | < 1000 | ≤ 10 |  |  | 
8 | CCN1CCN(Cc2ccc3nc(-c4ccc(Cc5cc(Cl)ccc5OCC(C)C)o4)[nH]c3c2)CC1 [Example 146, 2-[5-({5-Chloro-2-[(2-methylpropyl)oxy]-phenyl}methyl)-2-furanyl]-5-[(4-ethyl-1-piperazinyl)methyl]-1H-benzimidazoletrihydrochloride] | < 1000 | ≤ 10 |  |  | 
9 | CC(C)COc1ccc(Cl)cc1Cc1ccc(-c2nc3ccc(CN4CCCCC4)cc3[nH]2)o1 [Example 147, 2-[5-({5-Chloro-2-[(2-methylpropyl)oxy]-phenyl}methyl)-2-furanyl]-5-(1-piperidinylmethyl)-1H-benzimidazoledihydrochloride] | < 1000 | ≤ 10 |  |  | 
10 | COCCN(C)Cc1ccc2nc(-c3ccc(Cc4cc(Cl)ccc4OCC(C)C)o3)[nH]c2c1 [Example 148, N-({2-[5-({5-Chloro-2-[(2-methylpropyl)oxy]-phenyl}methyl)-2-furanyl]-1H-benzimidazol-5-yl}methyl)-N-methyl-2-(methyloxy)ethanaminedihydrochloride] | < 1000 | ≤ 10 |  |  | 
11 | CC(C)COc1ccc(Cl)cc1Cc1ccc(-c2nc3ccc(CN(C)CCC#N)cc3[nH]2)o1 [Example 149, 3-[({2-[5-({5-Chloro-2-[(2-methylpropyl)oxy]-phenyl}methyl)-2-furanyl]-1H-benzimidazol-5-yl}methyl)(methyl)-amino]propanenitriledihydrochloride] | < 1000 | ≤ 10 |  |  | 
12 | Cc1cc(Cl)ccc1S(=O)(=O)NC[C@H]1C2CCC(CC2)[C@@H]1/C=C\CCCC(=O)O [ONO-8711] |  |  |  | inhibits mechanical hyperalgesia | reduces hyperalgesia and allodynia
